# Results: US6656937B2, “Substituted glutarimides and their use as inhibitors of IL-12 production” (Gruenenthal, GmbH, priority 2000, dated 2003)
# Where a name gives a salt, the structure may show the parent alone.
# Experiments:
# [1] = test system: IL-12 production by LPS-activated monocytes; test: Stimulation of human monocytes with lipopolysaccharide for secretion of IL-12 (IL-12 sandwich ELISA of culture supernatants); format: cell-based; conditions: CD14-positive human monocytes, 1 h preincubation with test substance, 20 μg/ml LPS from E. coli, 24 hours; for IC50: Monocyte, read-out: Inhibition of IL-12 production IC50
# Method: Human monocytes were isolated from peripheral blood mononuclear cells (PBMC) obtained by means of a Ficoll density-gradient centrifugation of heparinized whole blood. To this end, the PBMC were incubated with a monoclonal antibody directed against the monocyte-specific surface molecule CD14 and to which superparamagnetic microbeads (Miltenyi Biotech, Bergisch Gladbach) are coupled. In order for the marked monocytes to be positively selected from the mixture of cells in the PBMC, the total cell suspension was transferred to a column with a ferromagnetic carrier matrix and the column placed in a magnetic field. This caused the cells loaded with microbeads to be bonded to the carrier matrix, whilst unmarked cells passed through the column and were discarded. After removing the matrix from the magnetic field, the antibody-loaded cells were eluted by rinsing the now demagnetised column with buffer. The purity of this CD 14-positive monocyte population thus obtained was around 95 to 98%. These monocytes were incubated in a density of 10^6 cells/ml culture medium (RPMI, supplemented with 10% fetal calf serum) with the test substances dissolved in DMSO for one hour at 37° C. and 5% CO2.20 μg/ml LPS from E. coli were then added. After 24 hours, cell-free culture supernatants were taken and tested for their IL-12 content.
# The concentration of IL-12 in the cell culture supernatants was determined by means of sandwich ELISA using two anti-IL-12 monoclonal antibodies (Biosource Europe, Fleurus, Belgium). A reference standard curve with human IL-12 was included. The detection limit of the IL-12 ELISA was 10 pg/ml.
Compound,Inhibition of IL-12 production Maximum (%) [1] [%],IC50 [1] [µg/mL],Inhibition of IL-12 production IC50 [1] [µg/mL],melting point
"O=C1CC[C@H](NCc2ccccc2C(=O)O)C(=O)N1 [Example 6.1, 2-[(3S)-(2,6-dioxopiperidin-3-ylamino)methyl]benzoic acid]",85,1,,
"NC(=O)c1ccccc1CN[C@@H]1CCC(=O)NC1=O [Example 8.12, 2-[(3R)-(2,6-dioxopiperidin-3-ylamino)methyl]benzamide]",84,1,,
O=C1CC[C@H](NCc2ccccc2C(=O)N2CCOCC2)C(=O)N1 [Example 8.1],90,,1.8,
"CCNC(=O)c1ccccc1CN[C@H]1CCC(=O)NC1=O [Example 8.4, 2-[(3S)-(2,6-dioxopiperidin-3-ylamino)methyl]-N-ethyl benzamide]",80,,0.9,
"COC(=O)c1cc(SCC2CCC(=O)NC2=O)ccc1[N+](=O)[O-] (stereo not drawn) [Example 18, 3-(2,6-dioxopiperidin-3-ylmethylsulfanyl)-6-nitro Methylbenzoate]",57,,3.0,
"COC(=O)c1ccccc1SCC1CCC(=O)NC1=O (stereo not drawn) [Example 13.3, 2-(2,6-dioxopiperidin-3-ylmethyl)sulfanyl) methyl benzoate]",50,,6.0,
O=C1CC[C@H](NCc2ccccc2C(=O)N2CCCC2)C(=O)N1 [Example 8.5],80,,2.0,
"COC(=O)c1cc(SCC2CCC(=O)NC2=O)ccc1N (stereo not drawn) [Example 19, 2-amino-5-(2,6-dioxopiperidin-3-ylmethylsulfanyl) methyl benzoate]",66,,5.0,
"{2-[(3S)-(2,6-dioxopiperidin-3-ylamino)methyl]benzoylamino}methyl acetate [Example 8.2]",70,,1.8,
"CCN(CC)C(=O)c1ccccc1CN[C@@H]1CCC(=O)NC1=O [Example 8.11, 2-[(3R)-(2,6-dioxopiperidin-3-ylamino)methyl]-N,N-diethyl benzamide]",90,,0.2,
"O=C1CC[C@@H](NCc2ccccc2C(=O)Nc2ccccc2)C(=O)N1 [Example 8.10, 2-[(3R)-(2,6-dioxopiperidin-3-ylamino)methyl]-N-phenyl benzamide]",50,,,
CC(=O)Nc1ccccc1CNC1CCC(=O)NC1=O (stereo not drawn) [Example 16],95,,3.0,
"CCN(CC)C(=O)c1ccccc1CN[C@H]1CCC(=O)NC1=O [Example 7, 2-[(3S)-(2,6-dioxopiperidin-3-ylamino)methyl]-N,N-diethylbenzamide]",90,1.5,,
"NC(=O)c1ccccc1CN[C@H]1CCC(=O)NC1=O [Example 8.3, 2-[(3S)-(2,6-dioxopiperidin-3-ylamino)methyl]benzamide]",90,0.15,,
"NNC(=O)c1ccccc1CN[C@H]1CCC(=O)NC1=O [Example 8.6, 2-[(3S)-(2,6-dioxopiperidin-3-ylamino)methyl]benzoic acid hydrazide]",90,0.04,,
"O=C1CC[C@@H](NCc2ccccc2C(=O)O)C(=O)N1 [Example 6.2, 2-[(3R)-(2,6-dioxopiperidin-3-ylamino)methyl]benzoic acid]",75,1,,
"O=C1CC[C@H](NCc2ccccc2C(=O)Nc2ccccc2)C(=O)N1 [Example 8.7, 2-[(3S)-(2,6-dioxopiperidin-3-ylamino)methyl]-N-phenylbenzamide]",55,0.7,,
"2-[(3S)-(2,6-dioxopiperidin-3-ylamino)methyl]benzyl benzoate [Example 9.2]",82,,1.5,
"O=CNc1ccccc1CNC1CCC(=O)NC1=O (stereo not drawn) [Example 17, N-{2-[(2,6-dioxopiperidin-3-ylamino)methyl]phenyl}Formamide]",98,0.02,,
"COC(=O)c1ccccc1CN[C@H]1CCC(=O)NC1=O [Example 9.1, 2-[(3S)-(2,6-dioxopiperidin-3-ylamino)methyl]methyl benzoate]",90,,0.1,
"Cc1cccc(Cl)c1CNC1CCC(=O)NC1=O (racemic) (as salt: hydrochloride) [Example 2.15, 3-(2-chloro-6-methylbenzylamino) piperidine-2,6-dione]",,,,238 to 240 °C
"NC(=O)c1ccccc1CN[C@H]1CCC(=O)NC1=O (as salt: hydrobromid) [Example 8.3, 2-[(3S)-(2,6-dioxopiperidin-3-ylamino)methyl]benzamide]",,,,155 to 156 °C (dec.)
"O=C1CCC(NCc2ccc(C(F)(F)F)cc2)C(=O)N1 (racemic) (as salt: hydrochloride) [Example 2.21, 3-(4-trifluoromethylbenzylamino) piperidine-2,6-dione]",,,,252 to 255 °C
"O=C1CCC(NCc2ccc(Cl)cc2)C(=O)N1 (racemic) (as salt: hydrochloride) [Example 2.37, 3-(4-chlorobenzylamino) piperidine-2,6-dione]",,,,262 to 265 °C
"O=C1CCC(NCc2cccc(F)c2F)C(=O)N1 (racemic) (as salt: hydrochloride) [Example 2.7, 3-(2,3-difluorobenzylamino) piperidine-2,6-dione]",,,,206 to 212 °C (dec.)
"O=C1CCC(NCc2ccc(Cl)c(Cl)c2)C(=O)N1 (racemic) (as salt: hydrochloride) [Example 2.33, 3-(3,4-dichlorobenzylamino) piperidine-2,6-dione]",,,,252 to 254 °C
